Experimental data taken from patent publication US12036221B2, “Ketamine or dextromethorphan formulations and methods of use” (West Virginia University, priority 2014, dated 2024).

Legend:
[1] = forced swim test (preclinical); format: in vivo; conditions: preclinical studies
NMDA receptors = conditions: cited from earlier work
[2] = in vivo; cited from earlier work
sigma receptors = conditions: cited from earlier work
depression = conditions: cited from earlier work
[3] = tested on: treatment resistant patients; assay: off-label use of transbuccal ketamine in treatment resistant patients (day-hospital, preliminary data)

## COc1ccc2c(c1)[C@]13CCCC[C@@H]1[C@H](C2)N(C)CC3 [DM, dextromethorphan]
[1]
  immobility time in the forced swim test: dose dependently reduces immobility time
NMDA receptors
  affinity for NMDA receptors: moderate affinity
[2]
  metabolism in the body: rapidly metabolized in the body to dextrorphan
Sigma receptors
  affinity for sigma receptors: significant affinity

## CN(C)CCCN1c2ccccc2CCc2ccccc21 [imipramine]
[1]
  immobility time in the forced swim test: dose dependently reduces immobility time

## CNC1(c2ccccc2Cl)CCCCC1=O (stereo not drawn) [ketamine]
[1]
  immobility time in the forced swim test: dose dependently reduces immobility time
depression; in vivo
  duration of antidepressant effects: up to two
depression; off-label use
  onset of antidepressant effects after administration: ≤ 24 h
depression; sub-anesthetic doses
  onset of rapid acting antidepressant effects: two
Sigma receptors
  affinity for sigma receptors: significant affinity
[3]; 0.5 mg/kg liquid ketamine held in the mouth (transbuccal), patient report and clinician observation
  onset of antidepressant effects: ≤ 24 h
[3]; 0.5 mg/kg liquid ketamine, transbuccal / oral mucosa absorption
  side effects: No side effects (except for a transient, mild headache and slight dizziness in one patient each soon after administration)
